The CheMixHub drug solubility set

Assay: xn = mol fraction of the nth substance listed, in the solute-free solvent

OCCN(CCO)c1nc(N2CCCCC2)c2nc(N(CCO)CCO)nc(N3CCCCC3)c2n1 + CCO + O
solubility (g/100 g solution)
Settings	293.15 K	298.15 K	303.15 K	308.15 K	313.15 K	318.15 K	323.15 K	328.15 K
x2 = 0.3	1.64	1.81	2.52	3.79	5.33	8.14	12.5	18
x2 = 0.4	2.59	3.74	5.59	7.99	10.8	16	22.2	29.9
x2 = 0.5	4.37	6.13	8.44	11.4	15.2	20.7	28.1	36.2
x2 = 0.6	5.48	7.13	9.58	13.1	16.6	22.2	29.3	37
x2 = 0.7	5.8	7.49	9.93	13.1	16.7	21.9	28.4	35.8
x2 = 0.8	5.06	6.52	8.76	11.6	14.9	19.3	25.6	32.2
x2 = 0.9	4.28	5.36	7.23	9.43	11.7	15.1	20.7	26.7

CCCCCOC(=O)Nc1nc(=O)n(C2OC(C)C(O)C2O)cc1F (configuration not stated) + CCOC(C)=O + CCCCCC
solubility (g/100 g solution)
Settings	278.15 K	283.15 K	288.15 K	293.15 K	298.15 K	303.15 K	308.15 K	313.15 K	318.15 K	323.15 K
x2 = 0.09988	0.0133	0.0183	0.0254	0.0345	0.0462	0.0616	0.0815	0.107	0.139	0.18
x2 = 0.2008	0.0154	0.0212	0.0286	0.0382	0.0506	0.0664	0.0863	0.111	0.143	0.181
x2 = 0.3	0.0501	0.0621	0.0766	0.0936	0.113	0.137	0.165	0.197	0.233	0.276
x2 = 0.4	0.113	0.134	0.159	0.219	0.187	0.255	0.296	0.341	0.392	0.448
x2 = 0.5003	0.141	0.171	0.207	0.248	0.296	0.351	0.413	0.484	0.565	0.655
x2 = 0.6	0.309	0.384	0.474	0.581	0.706	0.853	1.02	1.22	1.45	1.71
x2 = 0.6998	0.423	0.535	0.67	0.833	1.03	1.26	1.53	1.85	2.22	2.65
x2 = 0.7998	0.53	0.694	0.902	1.16	1.48	1.87	2.34	2.91	3.58	4.39
x2 = 0.8999	0.819	1.09	1.43	1.85	2.38	3.04	3.84	4.8	5.96	7.33

CCCCCOC(=O)Nc1nc(=O)n(C2OC(C)C(O)C2O)cc1F (configuration not stated) + CCOC(C)=O + CCCCCCC
solubility (g/100 g solution)
Settings	278.15 K	283.15 K	288.15 K	293.15 K	298.15 K	303.15 K	308.15 K	313.15 K	318.15 K	323.15 K
x2 = 0.3	0.0197	0.0268	0.0361	0.0476	0.0629	0.0818	0.106	0.136	0.174	0.22
x2 = 0.4	0.0475	0.0561	0.0765	0.0904	0.106	0.132	0.154	0.184	0.216	0.267
x2 = 0.5	0.0862	0.111	0.141	0.179	0.221	0.274	0.337	0.411	0.502	0.604
x2 = 0.5998	0.131	0.166	0.212	0.286	0.332	0.407	0.518	0.643	0.749	0.931
x2 = 0.7	0.266	0.34	0.455	0.554	0.682	0.849	1.07	1.31	1.63	1.98
x2 = 0.8	0.485	0.609	0.801	0.99	1.27	1.6	2.05	2.49	3.12	3.74
x2 = 0.9001	0.622	0.794	1.08	1.44	1.81	2.46	3.02	4.02	4.87	6.07

Cl.N=C(N)N + CN1CCCC1=O + CCCO
solubility (g/100 g solution)
Settings	278.15 K	283.15 K	288.15 K	293.15 K	298.15 K	303.15 K	308.15 K	313.15 K	318.15 K	323.15 K
x2 = 0.06317	8.4	9.4	10.7	11.5	12.7	13.3	15.1	16.1	17.7	18.6
x2 = 0.2064	15.9	17	17.8	19.2	20.1	21.4	22.1	23.2	24.7	25.3
x2 = 0.3774	28.5	29.2	30.4	31	32.1	32.6	33.7	34.4	35.4	35.9
x2 = 0.5858	37.2	37.8	39.1	40.2	41.4	42.1	43.4	44.3	46	47.3
x2 = 0.845	41.9	43.3	44.2	45.5	46.7	47.9	49.3	50.4	52.6	53.1

CN1CCN(C2=Nc3cc(Cl)ccc3Nc3ccccc32)CC1 + CN1CCCC1=O + O
solubility (g/100 g solution)
Settings	x2 = 0.0198	x2 = 0.04347	x2 = 0.07228	x2 = 0.1081	x2 = 0.1538	x2 = 0.2143	x2 = 0.2979	x2 = 0.421	x2 = 0.6207
278.15 K	0.00909	0.045	0.169	0.497	1.2	2.31	3.88	5.87	7.69
283.15 K	0.0126	0.0614	0.224	0.65	1.5	2.92	4.64	6.96	9.05
288.15 K	0.0173	0.0846	0.297	0.832	1.86	3.58	5.6	8.28	10.5
293.15 K	0.0228	0.113	0.388	1.02	2.32	4.34	6.81	9.65	12
298.15 K	0.0318	0.148	0.501	1.3	2.84	5.22	7.94	11.2	13.9
303.15 K	0.0423	0.192	0.629	1.6	3.48	6.19	9.35	12.8	15.9
308.15 K	0.0547	0.257	0.793	2.01	4.21	7.31	10.9	14.7	18
313.15 K	0.071	0.329	1.02	2.46	5.04	8.54	12.7	16.8	20.2
318.15 K	0.0919	0.419	1.25	2.99	5.94	9.98	14.5	19	22.5
323.15 K	0.12	0.537	1.56	3.57	6.98	11.6	16.5	21.4	25.1
328.15 K	0.155	0.673	1.89	4.3	8.24	13.4	18.7	24	28

Cc1c(Br)cccc1C(=O)O + CN(C)C=O + CC#N
solubility (g/100 g solution)
Settings	x2 = 0.106	x2 = 0.224	x2 = 0.355	x2 = 0.502	x2 = 0.668	x2 = 0.858
278.15 K	6.4	10.6	14.2	17.6	20.8	23.6
283.15 K	7.69	12.4	16.8	20.7	24.4	25.8
288.15 K	8.95	14.9	19.8	24.3	28.2	32
293.15 K	11	17.3	23	28	32.5	36.6
298.15 K	12.6	20.2	26.5	32.1	37.1	41.6
303.15 K	14.5	23.3	30.5	36.5	42.1	47.1
308.15 K	17.1	26.8	34.4	41.3	47.2	52.7
313.15 K	19.5	30.5	38.9	46.3	52.7	58.5
318.15 K	22.6	34.5	43.6	51.4	58.1	64.3
323.15 K	26	38.8	48.6	56.7	63.8	70.3
328.15 K	29.2	43.1	53.5	62	69.3	76

Nc1[nH]c(=O)ncc1F + CN(C)C=O + CC(C)O
solubility (g/100 g solution)
Settings	283.15 K	288.15 K	293.15 K	298.15 K	303.15 K	308.15 K	313.15 K	318.15 K	323.15 K
x2 = 0.0837	0.0457	0.057	0.0702	0.0871	0.105	0.126	0.149	0.174	0.203
x2 = 0.1705	0.0578	0.0715	0.0887	0.107	0.128	0.152	0.178	0.209	0.245
x2 = 0.2605	0.0731	0.0892	0.107	0.13	0.155	0.183	0.214	0.248	0.285
x2 = 0.354	0.0896	0.107	0.127	0.153	0.182	0.214	0.249	0.288	0.333
x2 = 0.4512	0.106	0.126	0.151	0.18	0.213	0.248	0.284	0.327	0.376
x2 = 0.5522	0.121	0.143	0.17	0.203	0.236	0.273	0.315	0.36	0.413
x2 = 0.6573	0.137	0.16	0.189	0.221	0.258	0.298	0.342	0.391	0.447
x2 = 0.7668	0.153	0.18	0.209	0.242	0.281	0.322	0.369	0.426	0.484
x2 = 0.8809	0.173	0.201	0.23	0.267	0.306	0.351	0.402	0.46	0.524
